For data set [1], the system named is MCF7. In words: Cytotoxicity against human MCF7 cells assessed as reduction in cell viability incubated for 72 hrs by MTT assay. It counts as functional, cell-based. Conditions: MCF7, 72 h. On the technique in general: Tetrazolium assays rely on reduction of a dye to a coloured formazan, in cell work by metabolically active cells.
For data set [2], the system named is HEp-2. In words: Cytotoxicity against human HEp-2 cells assessed as reduction in cell viability incubated for 72 hrs by MTT assay. It counts as functional, cell-based. Conditions: HEp-2, 72 h.
In data set [3] the test system is NCI-H292. The experiment in a line: Cytotoxicity against human NCI-H292 cells assessed as reduction in cell viability incubated for 72 hrs by MTT assay. It counts as functional, cell-based. Conditions: NCI-H292, 72 h.
The subject of data set [4] is Mycobacterium tuberculosis. The experiment in a line: Antimycobacterial activity against Mycobacterium tuberculosis H37Rv ATCC 27294 assessed as bacterial growth inhibition incubated for 5 days by Alamar blue reagent based assay. It counts as functional. Conditions: ATCC 27294, 120 h, time 5 day.
In data set [5] the test system is HL-60. In words: Cytotoxicity against human HL-60 cells assessed as reduction in cell viability by MTT assay. The format is functional, cell-based.
For data set [6], the system named is HCT-116. The experiment in a line: Cytotoxicity against human HCT-116 cells assessed as reduction in cell viability by MTT assay. It counts as functional, cell-based.
The subject of data set [7] is OVCAR-8. In words: Cytotoxicity against human OVCAR-8 cells assessed as reduction in cell viability by MTT assay. It counts as functional, cell-based.
The subject of data set [8] is SF-295. The experiment in a line: Cytotoxicity against human SF-295 cells assessed as reduction in cell viability by MTT assay. The format is functional, cell-based.
The test system of data set [9] is Enterococcus faecalis. In words: Antibacterial activity against Enterococcus faecalis clinical isolates assessed as bacterial growth inhibition by broth macrodilution method. It counts as functional.
For data set [10], the system named is PC-3. The experiment in a line: Cytotoxicity against human PC-3 cells assessed as reduction in cell viability incubated for 72 hrs by MTT assay. It counts as functional, cell-based. Conditions: PC-3, 72 h.
Data set [11] relates to NCI-H460. In words: Cytotoxicity against human NCI-H460 cells assessed as reduction in cell viability incubated for 72 hrs by MTT assay. It counts as functional, cell-based. The settings on record: NCI-H460, 72 h.
Data set [12] can be described thus: Cytotoxicity against human AGP01 cells assessed as reduction in cell viability incubated for 72 hrs by alamar blue assay. The settings on record: AGP01, 72 h. The format is functional, cell-based.
Data set [13] deals with HSC-3. The experiment in a line: Cytotoxicity against human HSC-3 cells assessed as reduction in cell viability incubated for 72 hrs by alamar blue assay. The format is functional, cell-based. The settings on record: HSC-3, 72 h. On the technique in general: The colour change of resazurin is a common sign of viable cells or microbes.
A short description of data set [14]: Cytotoxicity against human ACP02 cells assessed as reduction in cell viability incubated for 72 hrs by alamar blue assay. It counts as functional, cell-based. The settings on record: ACP02, 72 h.
For data set [15], the system named is SCC-9. In words: Cytotoxicity against human SCC-9 cells assessed as reduction in cell viability incubated for 72 hrs by alamar blue assay. The format is functional, cell-based. The settings on record: SCC-9, 72 h.
A short description of data set [16]: Selectivity index, ratio of IC50 for human PBMC cells to IC50 for human HL-60 cells. The format is toxicity. Conditions: PBMC cells versus HL-60 cells, read-out: Ratio IC50.
For data set [17], the system named is HepG2. In words: Cytotoxicity against human HepG2 cells assessed as reduction in cell viability incubated for 72 hrs by alamar blue assay. It counts as functional, cell-based. The settings on record: HepG2, 72 h.
The subject of data set [18] is HL-60. The experiment in a line: Cytotoxicity against human HL-60 cells assessed as reduction in cell viability incubated for 72 hrs by alamar blue assay. The format is functional, cell-based. The settings on record: HL-60, 72 h.
Data set [19] has as its system K562. The experiment in a line: Cytotoxicity against human K562 cells assessed as reduction in cell viability incubated for 72 hrs by alamar blue assay. It counts as functional, cell-based. The settings on record: K562, 72 h.
Data set [20] deals with HT-29. The experiment in a line: Cytotoxicity against human HT-29 cells assessed as reduction in cell viability incubated for 72 hrs by alamar blue assay. It counts as functional, cell-based. The settings on record: HT-29, 72 h.
A short description of data set [21]: Cytotoxicity against human ACP03 cells assessed as reduction in cell viability incubated for 72 hrs by alamar blue assay. It counts as functional, cell-based. Conditions: ACP03, 72 h.
Data set [22] deals with HCT-116. In words: Cytotoxicity against human HCT-116 cells assessed as reduction in cell viability incubated for 72 hrs by alamar blue assay. It counts as functional, cell-based. Conditions: HCT-116, 72 h.
Data set [23] has as its system SCC-15. In words: Cytotoxicity against human SCC-15 cells assessed as reduction in cell viability incubated for 72 hrs by alamar blue assay. Conditions: SCC-15, 72 h. The format is functional, cell-based.
Data set [24] deals with SCC-25. The experiment in a line: Cytotoxicity against human SCC-25 cells assessed as reduction in cell viability incubated for 72 hrs by alamar blue assay. It counts as functional, cell-based. Conditions: SCC-25, 72 h.
The test system of data set [25] is SCC-4. The experiment in a line: Cytotoxicity against human SCC-4 cells assessed as reduction in cell viability incubated for 72 hrs by alamar blue assay. It counts as functional, cell-based. Conditions: SCC-4, 72 h.
Data set [26] has as its system SNB-19. In words: Cytotoxicity against human SNB-19 cells assessed as reduction in cell viability incubated for 72 hrs by MTT assay. The format is functional, cell-based. The settings on record: SNB-19, 72 h.
In data set [27] the test system is HCT-116. The experiment in a line: Cytotoxicity against human HCT-116 cells assessed as reduction in cell viability incubated for 72 hrs by MTT assay. The format is functional, cell-based. Conditions: HCT-116, 72 h.
Data set [28] is described as follows: Cytotoxicity against mouse L929 cells assessed as reduction in cell viability incubated for 72 hrs by MTT assay. The format is toxicity, cell-based.
Data set [29] relates to B16-F10. In words: Cytotoxicity against mouse B16-F10 cells assessed as reduction in cell viability incubated for 72 hrs by MTT assay. The format is functional, cell-based. Conditions: B16-F10, 72 h.
Data set [30] concerns Sporothrix schenckii. The experiment in a line: Antifungal activity against Sporothrix schenckii assessed as fungal growth inhibition incubated for 48 hrs by CLSI-based broth microdilution assay. The format is functional. Background: In broth dilution the organism is exposed to a series of concentrations in liquid medium.
In data set [31] the test system is Sporothrix schenckii. In words: Antifungal activity against Sporothrix schenckii assessed as fungal growth inhibition incubated for 48 hrs in presence of itraconazole by CLSI-based broth microdilution assay. The format is functional.
Data set [32] deals with Sporothrix. In words: Antifungal activity against Sporothrix brasiliensis assessed as fungal growth inhibition incubated for 48 hrs in presence of itraconazole by CLSI-based broth microdilution assay. The format is functional.
In data set [33] the test system is Sporothrix. The experiment in a line: Antifungal activity against Sporothrix brasiliensis assessed as fungal growth inhibition incubated for 48 hrs by CLSI-based broth microdilution assay. It counts as functional.
Data set [34] relates to Trypanosoma cruzi. The experiment in a line: Antitrypanosomal activity against bloodstream form of Trypanosoma cruzi Y trypomastigotes infected in Swiss Webster mouse assessed as reduction in viable parasite in blood incubated for 24 hrs by Neubauer counting chamber based light microscopic analysis. It counts as functional, organism-based.
Data set [35] deals with SF-295. The experiment in a line: Cytotoxicity against human SF-295 cells assessed as reduction in cell viability incubated for 72 hrs by MTT assay. It counts as functional, cell-based. Conditions: SF-295, 72 h.
Data set [36] concerns MDA-MB-435. The experiment in a line: Cytotoxicity against human MDA-MB-435 cells assessed as reduction in cell viability incubated for 72 hrs by MTT assay. It counts as functional, cell-based. The settings on record: MDA-MB-435, 72 h.
The test system of data set [37] is B16. In words: Cytotoxicity against mouse B16 cells assessed as reduction in cell viability incubated for 72 hrs by MTT assay. It counts as functional, cell-based. Conditions: B16, 72 h.
The subject of data set [38] is HCT-8. In words: Cytotoxicity against human HCT-8 cells assessed as reduction in cell viability incubated for 72 hrs by MTT assay. The format is functional, cell-based. The settings on record: HCT-8, 72 h.
Data set [39] concerns HL-60. In words: Cytotoxicity against human HL-60 cells assessed as reduction in cell viability incubated for 72 hrs by MTT assay. The format is functional, cell-based. The settings on record: HL-60, 72 h.
The subject of data set [40] is HepG2. The experiment in a line: Cytotoxicity against human HepG2 cells assessed as reduction in cell viability incubated for 48 hrs by MTT assay. The format is functional, cell-based. Conditions: HepG2, 48 h.
Data set [41] has as its system KB. The experiment in a line: Cytotoxicity against human KB cells assessed as reduction in cell viability incubated for 48 hrs by MTT assay. The format is functional, cell-based.
The subject of data set [42] is HeLa. In words: Cytotoxicity against human HeLa cells assessed as reduction in cell viability incubated for 48 hrs by MTT assay. The format is functional, cell-based.

The structures appear in SMILES notation. pIC50: −log10 of the molar value. Values after ≈ are worked out from the molar mass of the structure shown.

One may read the pIC50 as the negative decadic logarithm of the IC50, by convention in mol/L. `CC1(C)OC2=C(CC1CO)C(=O)C(=O)c1ccccc12` (stereo not given): the negative logarithm of the IC50 (pIC50) in data set [1], in [2] and in data set [3] was 5.26 in each case.
The term MIC denotes the lowest concentration that inhibits growth of the organism. `O=C1C(=O)c2ccccc2C2=C1CCC(c1ccccc1)O2` (stereo not given): the minimum inhibitory concentration (MIC) in [4] stood at 2.5 µg/mL (≈ 8.61 µM).
As to `CC1(C)O[C@@H]2O[C@@H](COC3C4=C(OC3(C)C)c3ccccc3C(=O)C4=O)[C@H]3OC(C)(C)O[C@H]3[C@@H]2O1` (stereo not given in full), the pIC50 in data set [5], in data set [6], in data set [7] and in [8] was 6.80 each time.
Consider `O=C(N[C@H](CO)[C@H](O)c1ccc([N+](=O)[O-])cc1)C(Cl)Cl` [CHLORAMPHENICOL], for which the minimal inhibitory concentration (MIC) in data set [9] was determined as 12 µg/mL (≈ 37.1 µM).
Regarding `CC1(C)OC2=C(C(=O)C(=O)c3ccccc32)[C@H](n2cc(C[Se]c3ccc(F)cc3)nn2)[C@H]1Br`, the negative-log IC50 (pIC50) was 5.97 in [10] and 5.88 in [11].
With `CC1(C)OC2=C(CC1I)C(=O)C(=O)c1ccccc12` (stereo not given), the negative-log IC50 (pIC50) in data set [12], in data set [13], in data set [14], in data set [15], in data set [17] and in data set [18] was 7.70 each time. For the same compound, the negative logarithm of the IC50 (pIC50) in data set [19], in [20], in data set [21], in [22], in [23] and in data set [24] was 7.70 throughout. In [25], the pIC50 was 7.70. Besides, the selectivity ratio in data set [16] was determined as 1690.
A word on the IC50: it is the concentration that inhibits the measured activity by half. Regarding `CC1(C)OC2=C(C(=O)C(=O)c3ccccc32)C1n1cc(C[Se]c2ccccc2)nn1` (stereo not given), the negative-log IC50 (pIC50) in data set [10], in data set [1], in data set [26], in data set [27] and in [29] was 5.97 each time. Besides, the IC50 at 72 h in [28] amounted to 1060 nM.
As for `Cc1ccc(C2CCC3=C(O2)c2ccccc2C(=O)C3=O)cc1` (stereo not given), the minimal inhibitory concentration (MIC) in data set [4] stood at 1.25 µg/mL (≈ 4.11 µM).
Turning to `Cc1ccc(-c2cc(NC3C4=C(OC3(C)C)c3ccccc3C(=O)C4=O)n(-c3ccccc3)n2)cc1` (stereo not given), the pIC50 was 6.47 in data set [5], 6.14 in data set [6], 6.00 in [7] and 5.98 in data set [8].
Consider `O=C1C(=O)c2ccccc2C2=C1CC(c1ccccc1)O2` (stereo not given), for which the minimal inhibitory concentration (MIC) came out at 2 µM (≈ 0.553 µg/mL) in [30], 0.06 µM in [31], 0.03 µM in data set [32] and 2 µM (≈ 0.553 µg/mL) in [33].
In the case of `CC1(c2ccccc2)CC2=C(O1)c1ccccc1C(=O)C2=O` (stereo not given), the MIC in data set [30] stood at 2 µM (≈ 0.581 µg/mL); in data set [31], 0.06 µM; in data set [32], 0.03 µM; in data set [33] it was 2 µM (≈ 0.581 µg/mL).
For the compound `CC1(C)OC2=C(CC1[Se]c1ccc(F)cc1)C(=O)C(=O)c1ccccc12` (stereo not given), the pIC50 in data set [10] is 6.02; in data set [1], 6.02; in data set [26], 6.02; in data set [27], 6.02; in data set [34] it was 4.42; in [29], 6.02.
Turning to `CC1(C)OC2=C(C(=O)C(=O)c3ccccc32)C1n1cc(C2(O)CCCCC2)nn1` (stereo not given), the pIC50 in data set [10], in data set [35], in [36], in data set [37], in data set [38] and in [39] was 6.37 in each case. Besides, the minimum inhibitory concentration (MIC) in data set [9] is 16 µg/mL (≈ 40.7 µM).
`CC1COC2=C(C1)C(=O)C(=O)c1ccccc12` (stereo not given): the negative logarithm of the IC50 (pIC50) in data set [40], in [41] and in data set [42] was 6.04 each time.

Values taken from ChEMBL document CHEMBL5104093, “A comprehensive review on β-lapachone: Mechanisms, structural modifications, and therapeutic potentials” (Eur J Med Chem, 2021).
